The results in this text go back to ChEMBL document CHEMBL1201862, “PubChem BioAssay data set” (2004).

What is called EC50 is the concentration that produces a half-maximal response. In general, IC50 refers to the midpoint of a concentration-inhibition curve. By AC50 is commonly meant the midpoint of the concentration-response curve, whichever way the signal moves.

Calls of active or inactive are those of the source.

Series [1] is described as follows: luciferase reporter signal suppression in cells – H4 neuroglioma cells, luminescence, dose response (AID 1990). Format: functional, cell-based. Background: Reporter assays use an easily measured gene product as a stand-in for the process of interest.
The nature of series [2]: Luminescence Cell-Based Dose Response HTS to Identify Inhibitors of 5'UTR Stem-Loop Driven Prion Protein mRNA Translation in H4 Neuroglioblastoma Cells. [Related pubchem assays: 1827 (Project Summary), 1813 (Primary HTS)]. Format: functional.
Series [3] is described as follows: alpha-synuclein stem-loop luciferase translation blockers – H4 neuroglioma cells, luminescence, confirmation (AID 1988). Format: functional, cell-based.
Series [4] concerns the target Glucose-6-phosphate 1-dehydrogenase (Homo sapiens, UniProt P11413). Briefly: inhibition of Homo sapiens G6PD, dose series – biochemical, fluorescence, selectivity assay for P. falciparum G6PD inhibitor project, dose response (AID 504792). Format: functional.
Series [5] has as its target DNA dC->dU-editing enzyme APOBEC-3A (Homo sapiens, UniProt P31941). The series can be described thus: Dose Response confirmation of small molecule APOBEC3A DNA Deaminase Inhibitors via a fluorescence-based single-stranded DNA deaminase assay. [Related pubchem assays (depositor defined):AID493011, AID493024]. It is filed as functional.
Series [6] addresses DNA dC->dU-editing enzyme APOBEC-3G (Homo sapiens, UniProt Q9HC16). Format: functional.
Series [7] can be described thus: NIH-3T3 fibroblast cytotoxicity, dose response, cytotoxicity control, cell-based, fluorescence, Alamar Blue, secondary assay (AID 2327).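 Also: NIH-3T3 mouse fibroblasts cultured with fluconazole at 8 µg/mL.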 It is filed as functional. A general note: Alamar Blue is a resazurin reagent that responds to reducing activity.
Series [8] in a line: fluconazole-exposed Candida albicans growth modulators – fluorescence, retest, confirmation (AID 2467). It is filed as functional, cell-based.
The target in series [9] is T1, Short transient receptor potential channel 4 (Mus musculus, UniProt Q9QUQ5).
T1 sequence (Q9QUQ5 whole entry): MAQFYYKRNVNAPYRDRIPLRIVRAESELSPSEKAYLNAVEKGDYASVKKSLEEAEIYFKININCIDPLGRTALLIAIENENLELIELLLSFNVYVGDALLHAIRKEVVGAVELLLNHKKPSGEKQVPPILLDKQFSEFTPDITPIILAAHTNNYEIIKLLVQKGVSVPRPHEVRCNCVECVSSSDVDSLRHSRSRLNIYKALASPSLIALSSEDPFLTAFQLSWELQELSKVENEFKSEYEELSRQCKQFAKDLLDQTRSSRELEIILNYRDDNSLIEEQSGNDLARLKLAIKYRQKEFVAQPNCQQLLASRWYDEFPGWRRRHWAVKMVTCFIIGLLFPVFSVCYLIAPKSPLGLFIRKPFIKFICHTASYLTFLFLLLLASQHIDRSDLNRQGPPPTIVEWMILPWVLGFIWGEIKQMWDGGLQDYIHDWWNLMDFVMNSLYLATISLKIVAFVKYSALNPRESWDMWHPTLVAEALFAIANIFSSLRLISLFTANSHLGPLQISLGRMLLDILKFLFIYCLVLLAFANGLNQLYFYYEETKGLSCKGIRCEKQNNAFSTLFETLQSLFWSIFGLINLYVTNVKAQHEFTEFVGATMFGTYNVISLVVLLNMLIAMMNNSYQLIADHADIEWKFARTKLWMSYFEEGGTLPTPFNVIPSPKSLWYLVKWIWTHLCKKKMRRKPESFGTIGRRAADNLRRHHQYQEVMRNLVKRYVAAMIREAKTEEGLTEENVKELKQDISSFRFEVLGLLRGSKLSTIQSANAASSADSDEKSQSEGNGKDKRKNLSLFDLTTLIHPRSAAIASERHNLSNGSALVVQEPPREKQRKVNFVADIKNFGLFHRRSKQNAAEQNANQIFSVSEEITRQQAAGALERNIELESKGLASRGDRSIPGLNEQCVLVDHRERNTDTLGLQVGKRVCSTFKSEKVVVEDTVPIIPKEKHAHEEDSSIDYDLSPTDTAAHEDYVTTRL
Briefly: calcium entry via TRPC4 opening agents – cell-based, HEK293 TRPC4/mu-opioid, Fluo-4 calcium, dose response (AID 434937). It is filed as functional.

The target in series [10] is T2, Histone-lysine N-methyltransferase NSD2 (Homo sapiens, UniProt O96028).
T2 sequence (O96028 whole entry): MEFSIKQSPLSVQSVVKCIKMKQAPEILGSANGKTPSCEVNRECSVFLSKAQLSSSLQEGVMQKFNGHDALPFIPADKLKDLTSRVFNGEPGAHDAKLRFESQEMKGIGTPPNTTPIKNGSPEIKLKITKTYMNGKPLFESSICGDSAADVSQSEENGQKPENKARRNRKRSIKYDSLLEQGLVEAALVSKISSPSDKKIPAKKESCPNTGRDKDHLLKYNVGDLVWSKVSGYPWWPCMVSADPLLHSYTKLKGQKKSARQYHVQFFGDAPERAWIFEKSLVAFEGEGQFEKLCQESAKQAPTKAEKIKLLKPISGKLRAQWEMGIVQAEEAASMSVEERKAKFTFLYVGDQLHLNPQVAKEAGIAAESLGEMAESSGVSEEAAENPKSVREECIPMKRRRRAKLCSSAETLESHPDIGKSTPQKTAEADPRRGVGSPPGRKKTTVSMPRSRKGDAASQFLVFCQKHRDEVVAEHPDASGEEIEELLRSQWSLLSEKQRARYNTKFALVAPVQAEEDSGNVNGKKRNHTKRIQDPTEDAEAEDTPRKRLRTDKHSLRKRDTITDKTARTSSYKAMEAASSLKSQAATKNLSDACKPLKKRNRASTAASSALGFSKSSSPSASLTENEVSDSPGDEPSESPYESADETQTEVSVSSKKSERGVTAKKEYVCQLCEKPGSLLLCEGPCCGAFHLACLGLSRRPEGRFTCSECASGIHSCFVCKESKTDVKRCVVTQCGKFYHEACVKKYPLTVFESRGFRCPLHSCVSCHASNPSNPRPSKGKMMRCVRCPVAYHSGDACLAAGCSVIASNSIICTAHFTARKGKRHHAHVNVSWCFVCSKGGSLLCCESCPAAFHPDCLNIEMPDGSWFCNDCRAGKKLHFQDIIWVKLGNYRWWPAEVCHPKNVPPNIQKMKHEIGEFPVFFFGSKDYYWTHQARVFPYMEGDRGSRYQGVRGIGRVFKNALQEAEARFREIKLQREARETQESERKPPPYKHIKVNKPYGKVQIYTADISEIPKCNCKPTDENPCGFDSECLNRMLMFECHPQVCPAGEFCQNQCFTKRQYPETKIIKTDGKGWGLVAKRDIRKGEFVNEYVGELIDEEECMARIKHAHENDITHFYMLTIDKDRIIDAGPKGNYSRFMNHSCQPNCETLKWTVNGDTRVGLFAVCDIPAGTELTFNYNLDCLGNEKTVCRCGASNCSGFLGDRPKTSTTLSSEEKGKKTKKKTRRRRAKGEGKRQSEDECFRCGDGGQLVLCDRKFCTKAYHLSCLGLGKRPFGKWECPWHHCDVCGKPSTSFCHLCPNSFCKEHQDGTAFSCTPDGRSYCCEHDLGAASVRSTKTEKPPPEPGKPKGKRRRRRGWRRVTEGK
Format: biochemical.

The target in the next series is Cytochrome P450 2C9 (Homo sapiens, UniProt P11712).
Chain of Cytochrome P450 2C9 (P11712 whole entry): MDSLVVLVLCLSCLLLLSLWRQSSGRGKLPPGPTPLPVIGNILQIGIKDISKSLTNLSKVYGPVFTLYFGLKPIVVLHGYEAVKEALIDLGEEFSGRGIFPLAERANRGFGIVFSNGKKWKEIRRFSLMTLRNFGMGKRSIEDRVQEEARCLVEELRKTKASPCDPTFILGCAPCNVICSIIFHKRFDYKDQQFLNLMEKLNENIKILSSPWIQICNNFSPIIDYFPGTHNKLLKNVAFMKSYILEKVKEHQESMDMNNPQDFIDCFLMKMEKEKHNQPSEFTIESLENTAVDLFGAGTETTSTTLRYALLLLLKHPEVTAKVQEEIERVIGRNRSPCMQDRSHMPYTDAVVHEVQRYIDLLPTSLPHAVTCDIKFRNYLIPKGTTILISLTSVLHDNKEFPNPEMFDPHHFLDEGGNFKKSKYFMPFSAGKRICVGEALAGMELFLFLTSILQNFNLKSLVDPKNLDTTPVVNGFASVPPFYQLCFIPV
A further series addresses T3, Leucine aminopeptidase (Plasmodium falciparum 3D7, UniProt Q8IL11).
T3 sequence (Q8IL11 whole entry): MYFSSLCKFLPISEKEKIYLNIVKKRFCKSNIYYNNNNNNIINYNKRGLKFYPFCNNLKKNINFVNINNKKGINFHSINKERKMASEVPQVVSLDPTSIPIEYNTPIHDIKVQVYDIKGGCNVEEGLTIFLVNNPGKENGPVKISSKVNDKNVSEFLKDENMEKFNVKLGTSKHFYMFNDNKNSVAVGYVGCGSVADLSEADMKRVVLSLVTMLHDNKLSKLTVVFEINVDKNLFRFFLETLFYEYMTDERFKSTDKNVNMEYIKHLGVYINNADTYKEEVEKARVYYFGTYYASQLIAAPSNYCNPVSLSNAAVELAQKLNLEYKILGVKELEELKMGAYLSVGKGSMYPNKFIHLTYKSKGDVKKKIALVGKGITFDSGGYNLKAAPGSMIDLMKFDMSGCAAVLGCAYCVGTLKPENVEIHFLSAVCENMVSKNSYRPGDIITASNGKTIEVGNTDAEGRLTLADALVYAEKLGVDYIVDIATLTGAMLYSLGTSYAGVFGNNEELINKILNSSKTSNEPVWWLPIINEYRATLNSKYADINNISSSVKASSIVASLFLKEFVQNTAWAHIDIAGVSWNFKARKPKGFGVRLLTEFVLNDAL
Briefly: P. falciparum M17LAP inhibitors, primary screen, biochemical, fluorogenic H-Leu-NHMec substrate, 1536-well (AID 1619). It is filed as functional.

In another series the target is Cytochrome P450 2C19 (Homo sapiens, UniProt P33261). Briefly: Cytochrome panel assay with activity outcomes. Panel member name: p450-cyp2c19 Compounds with AC50 equal or less than 10 uM are considered active. It is filed as functional. Particulars: read-out: AC50.
Chain of Cytochrome P450 2C19 (P33261 whole entry): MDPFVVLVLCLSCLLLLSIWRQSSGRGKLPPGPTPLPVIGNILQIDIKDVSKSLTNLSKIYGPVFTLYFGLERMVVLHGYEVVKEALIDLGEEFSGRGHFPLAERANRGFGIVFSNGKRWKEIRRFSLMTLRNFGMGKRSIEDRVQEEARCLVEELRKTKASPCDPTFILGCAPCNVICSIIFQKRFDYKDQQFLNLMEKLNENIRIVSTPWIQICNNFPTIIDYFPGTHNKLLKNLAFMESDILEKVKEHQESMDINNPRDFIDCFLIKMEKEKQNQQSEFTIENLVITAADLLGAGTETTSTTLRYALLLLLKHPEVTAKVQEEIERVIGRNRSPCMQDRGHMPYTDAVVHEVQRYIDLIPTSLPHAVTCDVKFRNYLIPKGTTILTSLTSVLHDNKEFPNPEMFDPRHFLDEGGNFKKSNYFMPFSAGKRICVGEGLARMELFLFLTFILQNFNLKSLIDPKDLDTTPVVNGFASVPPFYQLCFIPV
For series [11], the system named is Streptococcus sp. 'group A'. Briefly: Streptococcus pyogenes SK(-)GAS viability under kanamycin – luminescence, BacTiterGlo, confirmation, counter-screen for streptokinase expression inhibitor project, dose response (AID 1900). Format: functional, organism-based. (In general: A counterscreen serves to expose hits that act by an unwanted route or on another target.)

The target in a further series is T4, Streptokinase A (Streptococcus pyogenes serotype M1, UniProt P10520).
T4 sequence (P10520 whole entry): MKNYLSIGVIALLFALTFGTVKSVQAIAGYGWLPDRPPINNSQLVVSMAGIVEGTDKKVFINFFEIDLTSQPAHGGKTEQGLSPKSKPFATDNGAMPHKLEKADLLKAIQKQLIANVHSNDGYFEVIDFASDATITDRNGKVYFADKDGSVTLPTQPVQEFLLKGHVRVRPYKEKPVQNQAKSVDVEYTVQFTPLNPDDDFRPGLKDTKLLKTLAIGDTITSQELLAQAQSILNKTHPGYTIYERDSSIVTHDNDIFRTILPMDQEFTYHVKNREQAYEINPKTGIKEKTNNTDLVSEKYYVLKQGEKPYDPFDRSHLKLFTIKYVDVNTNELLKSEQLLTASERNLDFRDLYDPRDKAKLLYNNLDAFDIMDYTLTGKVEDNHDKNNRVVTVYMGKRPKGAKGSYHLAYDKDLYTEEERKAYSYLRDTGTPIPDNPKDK
Briefly: viability-normalized secreted streptokinase activity reduction – plasminogen activation absorbance, OD405, dose response (AID 1914).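 Also: secreted streptokinase activity via plasminogen activation per viability signal from cell pellet.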 Format: functional, Streptococcus pyogenes M1 GAS.

For another series, the system named is Streptococcus. The series can be described thus: GAS UMAA2166 growth inhibition – luminescence, BacTiterGlo, counter-screen for streptokinase expression inhibitor project, dose response (AID 1915).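 Also: potency for reduction of bacterial viability or growth.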 Format: functional, organism-based.
Series [12] concerns the target Voltage-dependent T-type calcium channel subunit alpha-1H (Homo sapiens, UniProt O95180). Format: functional.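 Also: channel activity triggered by adding a high calcium stimulation buffer.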
Series [13] is described as follows: Luminescence Cell-Based Dose Retest to Confirm Inhibitors of Cancer Stem Cells. [Related pubchem assays (depositor defined):AID2717, AID2721]. Format: functional. Particulars: Homo sapiens.

Chain of DNA dC->dU-editing enzyme APOBEC-3A (P31941 whole entry): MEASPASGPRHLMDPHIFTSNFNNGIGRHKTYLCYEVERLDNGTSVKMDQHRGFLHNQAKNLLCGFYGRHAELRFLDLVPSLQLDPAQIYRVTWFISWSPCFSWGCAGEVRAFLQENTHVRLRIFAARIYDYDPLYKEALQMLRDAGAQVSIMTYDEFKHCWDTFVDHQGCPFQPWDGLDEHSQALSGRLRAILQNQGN
Chain of DNA dC->dU-editing enzyme APOBEC-3G (Q9HC16 whole entry): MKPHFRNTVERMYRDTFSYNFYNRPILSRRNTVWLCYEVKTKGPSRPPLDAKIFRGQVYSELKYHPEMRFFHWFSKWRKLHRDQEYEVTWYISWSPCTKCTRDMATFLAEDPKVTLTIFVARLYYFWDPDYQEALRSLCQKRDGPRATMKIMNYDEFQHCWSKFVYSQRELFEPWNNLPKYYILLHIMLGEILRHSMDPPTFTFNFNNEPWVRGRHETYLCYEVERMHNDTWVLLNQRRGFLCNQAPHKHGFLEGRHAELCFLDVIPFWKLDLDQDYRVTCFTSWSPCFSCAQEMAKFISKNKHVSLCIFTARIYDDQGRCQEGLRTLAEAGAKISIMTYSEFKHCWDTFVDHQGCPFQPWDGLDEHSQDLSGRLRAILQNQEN
Chain of Glucose-6-phosphate 1-dehydrogenase (P11413 whole entry): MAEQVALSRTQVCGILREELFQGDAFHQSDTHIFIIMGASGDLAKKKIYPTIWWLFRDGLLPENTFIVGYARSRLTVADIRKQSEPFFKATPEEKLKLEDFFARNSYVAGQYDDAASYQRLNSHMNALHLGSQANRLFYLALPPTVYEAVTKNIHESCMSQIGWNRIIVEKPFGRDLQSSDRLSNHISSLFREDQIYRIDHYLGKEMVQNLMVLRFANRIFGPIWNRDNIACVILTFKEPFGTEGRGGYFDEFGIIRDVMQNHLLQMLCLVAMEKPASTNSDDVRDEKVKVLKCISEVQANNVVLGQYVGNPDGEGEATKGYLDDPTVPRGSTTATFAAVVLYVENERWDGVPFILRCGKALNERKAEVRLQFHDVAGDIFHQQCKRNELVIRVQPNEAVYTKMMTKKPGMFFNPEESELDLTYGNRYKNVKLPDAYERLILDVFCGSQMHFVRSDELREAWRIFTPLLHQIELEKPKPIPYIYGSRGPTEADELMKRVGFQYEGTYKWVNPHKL
Chain of Voltage-dependent T-type calcium channel subunit alpha-1H (O95180 whole entry): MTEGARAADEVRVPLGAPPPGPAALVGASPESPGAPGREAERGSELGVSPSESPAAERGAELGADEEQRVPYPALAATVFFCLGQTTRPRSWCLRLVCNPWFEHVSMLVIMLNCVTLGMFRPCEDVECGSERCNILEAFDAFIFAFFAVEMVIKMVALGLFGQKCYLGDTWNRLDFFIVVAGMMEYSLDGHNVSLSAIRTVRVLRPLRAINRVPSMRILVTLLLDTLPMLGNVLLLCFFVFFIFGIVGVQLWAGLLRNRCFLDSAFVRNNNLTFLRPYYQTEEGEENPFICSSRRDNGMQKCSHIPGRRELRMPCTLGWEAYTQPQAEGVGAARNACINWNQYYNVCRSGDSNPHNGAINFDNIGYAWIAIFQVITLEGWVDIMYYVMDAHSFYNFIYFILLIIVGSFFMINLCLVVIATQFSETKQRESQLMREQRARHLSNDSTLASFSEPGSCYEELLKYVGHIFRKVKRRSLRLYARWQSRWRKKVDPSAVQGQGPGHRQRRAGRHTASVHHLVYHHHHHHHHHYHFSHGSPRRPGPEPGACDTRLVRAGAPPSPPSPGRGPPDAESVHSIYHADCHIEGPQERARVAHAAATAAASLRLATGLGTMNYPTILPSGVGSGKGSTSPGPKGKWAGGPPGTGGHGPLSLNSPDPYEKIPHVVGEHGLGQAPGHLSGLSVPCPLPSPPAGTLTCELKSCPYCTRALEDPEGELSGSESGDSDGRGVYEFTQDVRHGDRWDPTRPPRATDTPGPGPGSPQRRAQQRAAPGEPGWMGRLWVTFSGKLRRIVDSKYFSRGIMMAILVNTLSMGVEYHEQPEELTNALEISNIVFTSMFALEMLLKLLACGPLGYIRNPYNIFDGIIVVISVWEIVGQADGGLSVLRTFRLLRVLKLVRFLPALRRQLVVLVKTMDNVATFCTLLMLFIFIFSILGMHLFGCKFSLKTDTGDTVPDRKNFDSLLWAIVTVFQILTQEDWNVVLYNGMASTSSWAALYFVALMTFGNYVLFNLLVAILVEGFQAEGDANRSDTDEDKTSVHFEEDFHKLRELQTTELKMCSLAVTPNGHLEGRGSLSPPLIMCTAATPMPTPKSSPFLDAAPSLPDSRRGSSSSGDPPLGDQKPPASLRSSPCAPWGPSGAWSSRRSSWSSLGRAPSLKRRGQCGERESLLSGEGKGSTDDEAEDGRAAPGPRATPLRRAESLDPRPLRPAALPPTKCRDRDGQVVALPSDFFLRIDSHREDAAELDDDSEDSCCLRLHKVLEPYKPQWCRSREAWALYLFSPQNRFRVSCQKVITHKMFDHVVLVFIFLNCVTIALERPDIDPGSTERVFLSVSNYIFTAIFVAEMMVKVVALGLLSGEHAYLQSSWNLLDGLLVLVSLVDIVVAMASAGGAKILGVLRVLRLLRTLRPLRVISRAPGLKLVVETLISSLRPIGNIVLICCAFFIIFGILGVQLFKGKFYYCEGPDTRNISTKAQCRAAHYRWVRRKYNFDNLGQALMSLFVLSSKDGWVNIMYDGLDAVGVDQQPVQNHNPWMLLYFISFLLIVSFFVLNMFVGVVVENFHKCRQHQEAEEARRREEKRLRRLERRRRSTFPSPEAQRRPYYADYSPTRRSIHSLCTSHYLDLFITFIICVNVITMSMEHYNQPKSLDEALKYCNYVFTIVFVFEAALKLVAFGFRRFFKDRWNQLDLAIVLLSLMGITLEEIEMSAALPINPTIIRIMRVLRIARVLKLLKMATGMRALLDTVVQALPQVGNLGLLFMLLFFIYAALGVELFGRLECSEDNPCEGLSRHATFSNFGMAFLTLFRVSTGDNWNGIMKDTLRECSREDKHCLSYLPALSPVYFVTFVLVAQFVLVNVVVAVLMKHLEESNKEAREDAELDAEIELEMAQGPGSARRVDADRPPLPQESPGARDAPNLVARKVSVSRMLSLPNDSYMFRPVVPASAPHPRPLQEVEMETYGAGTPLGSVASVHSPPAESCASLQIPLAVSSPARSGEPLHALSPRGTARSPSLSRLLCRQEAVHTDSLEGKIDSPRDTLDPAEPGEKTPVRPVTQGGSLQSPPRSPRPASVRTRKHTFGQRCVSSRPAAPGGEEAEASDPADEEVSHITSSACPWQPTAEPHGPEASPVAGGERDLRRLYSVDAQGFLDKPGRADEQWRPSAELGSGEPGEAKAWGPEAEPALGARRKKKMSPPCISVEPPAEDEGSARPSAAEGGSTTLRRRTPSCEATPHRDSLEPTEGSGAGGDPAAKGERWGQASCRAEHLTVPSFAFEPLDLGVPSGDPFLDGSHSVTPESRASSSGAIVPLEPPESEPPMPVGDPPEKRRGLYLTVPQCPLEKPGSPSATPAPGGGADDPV

Take `CN(C)c1cccc2c1c(NC(=O)c1ccc(Cl)cc1)nn2C`: the figures for the EC50 in [1], in [2] and in [3] were > 120 µM (not active), > 120 µM (not active) and 24.2 µM (active), respectively. In addition, in series [4], the IC50 is > 80 µM (inactive).

In the case of `CC1=CC(C)C(C[N+]2(C)CCCCC2)C(C)C1` (centres undefined), the IC50 in series [5] is 6.16 µM (active); in series [6], 6.31 µM (active).

Turning to `CCCCC(=O)NNC(=S)NC(=O)c1ccc(C)cc1`, the half-maximal effective concentration (EC50) in series [7] was > 150 µM (inconclusive); in series [8] it was 1.43 µM (active); in series [9], 2.99 µM (active).

For `O=[N+]([O-])c1ccc(N2CCCC2)cc1N1CCCC1`, the AC50 in series [10] was > 20 µM (inactive); at Cytochrome P450 2C9, “inconclusive”.

Turning to `O=C1Nc2ccc(F)cc2C12SCCS2`, the half-maximal activity concentration (AC50) entry at Cytochrome P450 2C9 is reported as “inconclusive”.

In the case of `COc1ccc(NC(=O)CN2c3cccc4cccc(c34)S2(=O)=O)cc1`, the 50% inhibitory concentration (IC50) on Leucine aminopeptidase was 3.84 µM (active). Besides, the AC50 entry on Cytochrome P450 2C9 is “inconclusive”.

Take `Cc1ccc2[nH]c(SCC(=O)NC3CCCc4ccccc43)nc2c1` (centres undefined): the IC50 in series [4] is > 80 µM (inactive).

On to `CC(C)CC1CCCCC1OC(=O)C[N+]1(C)CCCCC1` (centres undefined), for which the half-inhibitory concentration (IC50) in [5] was 2.2 µM (active); in [6], 2.29 µM (active).

As to `COc1ccc(NC(=O)c2cc(C(C)C)on2)cc1OC`, the AC50 on Cytochrome P450 2C19 is 20 µM (inconclusive); at Cytochrome P450 2C9 it was “inconclusive”.

Consider `CCn1c(N)[n+](CC(=O)Nc2ccc(SC(F)F)cc2)c2ccccc21`, for which the EC50 in [9] is 4.22 µM (active).

`C[n+]1ccccc1/C=C/c1ccc2ncccc2c1`: the 50% inhibitory concentration (IC50) was 0.892 µM (active) in [5] and 1.92 µM (active) in series [6].

With `Cc1cc(-c2ccc(C)c(S(=O)(=O)NCCCN(Cc3ccccc3)C(C)C)c2)on1`, the EC50 in series [9] was 1.33 µM (active).

Consider `CCOC(=O)C1(CCOc2ccccc2)CCN(Cc2ccc(NC(C)=O)cc2)CC1`, for which, in series [9], the 50% effective concentration (EC50) was 0.211 µM (active).

For `O/N=C(\c1ccc(Cl)cc1Cl)c1ncc(C(F)(F)F)cc1Cl`, the half-maximal effective concentration (EC50) in series [11] was 10.6 µM (active); on Streptokinase A it was 35.2 µM (active); with Streptococcus, > 150 µM (not active); in series [12], 2.11 µM (active). In addition, the AC50 in [13] was 8.81 µM (active).
